Experimental data taken from PMC10142183, “Optimization of polymyxin B regimens for the treatment of carbapenem-resistant organism nosocomial pneumonia: a real-world prospective study” (Critical Care, 2023).
Positions of bridges follow the written chain, without caps; N, C: chain ends. Non-standard residues stand in square brackets, D forms with d. Residues, ends and D or L forms follow the SMILES beside them. *: point of attachment. X1 = CC[C@H](C)CCCCC(=O)*; Dab = NCC[C@H](N)C(=O)O

Legend:
[1] = Population PK model and plasma exposure in critically ill patients (HPLC-MS/MS, Phoenix NLME); format: in vivo, human; design: AUCss, 24h: concentration or dose not given beside the values
Description: Polymyxin B was given to all patients empirically as a loading dose of 100–200 mg followed by a maintenance dose of 40–100 mg every 12 h for at least 3 days. The infusion time was at least 1 h. Aerosol delivery of polymyxin B (25 mg or 50 mg twice daily) was using a vibrating mesh nebulizer, synchronized with the inspiratory cycle of the ventilator. Two to six blood samples (2 mL) were randomly collected immediately before the seventh dose of polymyxin B and at 0, 1, 2, 4, 6, 8 and 10 h after the end of infusion. The supernatant was immediately stored at − 80 °C until analysis.
An established high-performance liquid chromatography-tandem mass spectrometry (HPLC–MS/MS) was used to measure the concentrations of polymyxin B1 and polymyxin B2 as described previously by the authors’ laboratory (The total concentration of polymyxin B = [polymyxin B1 concentration/polymyxin B1 molecular + polymyxin B2 concentration/polymyxin B2 molecular]*total polymyxin B molecular). The interday precision was < 12%, the intraday precision was < 9%, and the accuracy ranged from 96.1 to 110.4%. The limit of quantification (LLOD) was 0.03 mg/L, and all of the polymyxin B concentrations detected were over LLOD.
The Phoenix NLME program (version 8.1. Pharsight, A Certara Company, USA) with the method of first-order conditional estimation-extended least square method (FOCE-ELS) was used to develop the population PK model by analyzing polymyxin B concentration. The objective function value (OFV), goodness-of-fit plots and the reasonable of population PK parameters were used to selection of the structure model. The stepwise covariate modeling (SCM) approach was used to test the covariate model in this analysis; age, sex, body weight, alanine aminotransferase (ALT), aspartate aminotransferase (AST), total bilirubin (TBIL), direct bilirubin (DBIL), serum albumin (ALB) and CrCL were evaluated as the covariates. The SCM consists of a forward selection step (the criterion is p < 0.05 for ΔOFV decreased ≥ 3.84) and a backward elimination step (the criterion is p < 0.001 for ΔOFV increased ≥ 10.83). In addition, the goodness-of-fit plots were used to assess the validity of the population PK model, the prediction-corrected visual predictive check (pcVPC) was used to assess the predictive performance of the key models. The bootstrap method was used to assess the accuracy.
The PK/PD indices included AUCss,24 h, AUCss,24 h/MIC, the peak and trough concentration at steady state (Cmax,ss and Cmin,ss), Cmax,ss /MIC and Cmin,ss /MIC. AUCss,24 h, Cmax,ss and Cmin,ss were calculated based on the empirical Bayesian (EBEs). For those patients with more than one baseline pathogen, AUCss,24 h/MIC, Cmax,ss /MIC and Cmin,ss /MIC evaluations were based on the pathogen with the highest MIC value.

CRO nosocomial pneumonia [2] = assay: PK/PD analysis for clinical efficacy in CRO nosocomial pneumonia; format: in vivo, human
Description: This prospective study was conducted at two intensive care units (ICU) between January 2020 and December 2021 in the Second Xiangya Hospital of Central South University (Changsha, China). […] The exclusion criteria were as follows: (a) concomitant lung cancer with obstructive pneumonitis or cystic fibrosis; (b) solid organ transplantation; (c) hematologic malignancies and hematopoietic cell transplant recipients; (d) receiving renal replacement therapy. HAP was defined according to the 2016 clinical practice guidelines of the Infectious Diseases Society of America and the American Thoracic Society. Determination of carbapenem susceptibility of CRO was followed by the European Committee on Antimicrobial Susceptibility Testing (EUCAST). Updated EUCAST Clinical Breakpoints of polymyxin B were sensitivity (S ≤ 2 mg/L) and drug resistance (R > 2 mg/L). The antimicrobial susceptibility testing was performed using the VITEK-2 Compact system with VITEK cards (0.5–16 mg/L for colistin) (bioMérieux, France). The following information was extracted from the electronic medical records: demographic and co-morbidity profiles, clinical and microbiological features of the infections, and the antimicrobial treatment regimens. Creatinine clearance (CrCL) was calculated using the Cockcroft–Gault equation. The endpoint was clinical efficacy and 30-day all-cause mortality. Assessment of clinical efficacy was conducted at the end of treatment, and 30-day mortality was recorded from the start of polymyxin B treatment. This prospective study was approved by the Ethics Committee of the Second Xiangya Hospital, Central South University. Informed consent was obtained from all patients or legal representatives of the patients (No. ChiCTR1900022231).
Clinical outcomes were classified as clinical success (CS) and clinical failure (CF), and were assessed by two physicians. CS was defined as a composite of survival; hemodynamic stability; body temperature < 38 °C, improved biochemistry indicators of infection; stable or improved PaO2/FiO2 ratio. Additionally, for patients with bacteremia, microbiological cure (no growth of the initial isolate in blood cultures) must be achieved by the end of the treatment. […] 30-day all-cause mortality was recorded from the start of polymyxin B treatment.
Variables potentially related to clinical efficacy and 30-day all-cause mortality were assessed, including: demographics, co-morbidities, clinical conditions, dosage regimen and concentration of polymyxin B. To develop receiver operating characteristic (ROC) curves, the PK/PD indices AUCss,24 h/MIC, Cmax,ss/MIC and Cmin,ss/MIC were used as predictors of clinical efficacy. The area under the diagnostic curve (AUCROC) was calculated to evaluate the correlation of the above parameters with clinical efficacy and 30-day all-cause mortality. Youden index of the ROC curves was calculated by "sensitivity + specificity-1", and the values corresponding to the maximum Youden index is the optimal cutoff point value of the PK/PD indices.
Statistical analysis was performed with SPSS 24.0 (SPSS, IBM Company, Chicago, IL, USA) software. Continuous variables are presented as the mean ± standard deviation (SD) if normally distributed and were compared using Student’s t tests. The median and interquartile range (IQR) are presented for abnormally distributed data, and the Mann–Whitney U test was used. Categorical variables are expressed as counts and percentages, and the chi-square test or Fisher’s exact test was used. Spearman’s rank correlation coefficient (r) was used to analyze the correlation between Cmin,ss, Cmax,ss and AUCss,24 h. Univariate analysis was performed for all variables to identify possible predictors for clinical efficacy. Variables with a p < 0.05 were entered into the multivariate logistic regression models. […]

CRO nosocomial pneumonia [3] = assay: 30-day all-cause mortality in CRO nosocomial pneumonia; format: in vivo, human; conditions: Cox regression, p = 0.001
Description: This prospective study was conducted at two intensive care units (ICU) between January 2020 and December 2021 in the Second Xiangya Hospital of Central South University (Changsha, China). […] The exclusion criteria were as follows: (a) concomitant lung cancer with obstructive pneumonitis or cystic fibrosis; (b) solid organ transplantation; (c) hematologic malignancies and hematopoietic cell transplant recipients; (d) receiving renal replacement therapy. HAP was defined according to the 2016 clinical practice guidelines of the Infectious Diseases Society of America and the American Thoracic Society. Determination of carbapenem susceptibility of CRO was followed by the European Committee on Antimicrobial Susceptibility Testing (EUCAST). […] Creatinine clearance (CrCL) was calculated using the Cockcroft–Gault equation. […] Assessment of clinical efficacy was conducted at the end of treatment, and 30-day mortality was recorded from the start of polymyxin B treatment. […]
Clinical outcomes were classified as clinical success (CS) and clinical failure (CF), and were assessed by two physicians. […] 30-day all-cause mortality was recorded from the start of polymyxin B treatment. […]
Statistical analysis was performed with SPSS 24.0 (SPSS, IBM Company, Chicago, IL, USA) software. […] Categorical variables are expressed as counts and percentages, and the chi-square test or Fisher’s exact test was used. […]

[4] = critically ill patients; weight-based regimen 1.25-1.5 mg/kg every 12 h; cited from earlier work
Description: At present, weight-based dosing regimen (1.25–1.5 mg/kg every 12 h) is recommended for polymyxin B [17, 18]. However, polymyxin B concentration varies widely in critically ill patients with this regimen, and almost 30% patients cannot achieve AUCss,24 h values within the target therapeutic window. […] Due to these inconsistent results, further research is needed to improve the charac ...

[5] = 30-day non-survival group (n = 28), median (IQR)
[6] = 30-day survival group (n = 77), median (IQR)
[7] = clinical failure group (n = 35), median (IQR)
[8] = clinical success group (n = 70), median (IQR)
[9] = final model estimate, two-compartment population PK, 105 patients, 295 plasma concentrations
[10] = median of 105 patients, plasma, empirical Bayesian estimates

CC[C@H](C)CCCCC(=O)N[C@@H](CCN)C(=O)N[C@H](C(=O)N[C@@H](CCN)C(=O)N[C@H]1CCNC(=O)[C@H]([C@@H](C)O)NC(=O)[C@H](CCN)NC(=O)[C@H](CCN)NC(=O)[C@H](CC(C)C)NC(=O)[C@@H](Cc2ccccc2)NC(=O)[C@H](CCN)NC1=O)[C@@H](C)O [polymyxin B] (X1-[Dab]T[Dab][Dab][Dab][dF]L[Dab][Dab]T; lactam 4-C)
AUCss, 24h [1, 5]: 62.1 (46.3, 83.2) mg·h/L
Cmax,ss [1, 5]: 5.4 (4.6, 6.1) μg/mL
Cmin,ss [1, 5]: 2.1 (1.6, 2.6) μg/mL
Cmin,ss /MIC [1, 5]: 2.2 (1.6, 2.7)
AUCss, 24h [1, 6]: 69.4 (58.5, 86.9) mg·h/L
Cmax,ss [1, 6]: 6.5 (5.8, 7.2) μg/mL
Cmin,ss [1, 6]: 2.2 (1.9, 2.5) μg/mL
Cmin,ss /MIC [1, 6]: 2.2 (1.9, 2.5)
CL (clearance in central compartment) ([1]; bootstrap method estimate): 1.56 L/h
CLd (clearance between central and peripheral compartment) ([1]; bootstrap method estimate): 2.41 L/h
Vc (volume distribution in central compartment) ([1]; bootstrap method estimate): 12.5 L
Vp (volume in peripheral compartment) ([1]; bootstrap method estimate): 29.9 L
AUCss, 24h [1, 7]: 60.6 (43.5, 66.6) mg·h/L
Cmax,ss [1, 7]: 5.1 (3.7, 6.9) μg/mL
Cmin,ss [1, 7]: 1.8 (1.0, 2.5) μg/mL
Cmin,ss /MIC [1, 7]: 1.7 (0.9, 1.9)
AUCss, 24h [1, 8]: 78.6 (62.4, 84.2) mg·h/L
Cmax,ss [1, 8]: 6.8 (5.0, 7.6) μg/mL
Cmin,ss [1, 8]: 2.4 (1.6, 2.8) μg/mL
Cmin,ss /MIC [1, 8]: 2.4 (1.4, 3.1)
CLd (clearance between central and peripheral compartment) [1, 9]: 2.41 L/h
Vc (volume distribution in central compartment) [1, 9]: 12.5 L
Vp (volume in peripheral compartment) [1, 9]: 29.9 L
CL (clearance in central compartment) ([1]; final model estimate, two-compartment population PK, 105 patients, 295 plasma concentrations, IV 100-200 mg loading then 40-100 mg every 12 h): 1.56 L/h
AUCss, 24h [1, 10]: 67.2 mg·h/L
Cmax,ss (peak concentration at steady state) [1, 10]: 5900 ng/mL
Cmin,ss (trough concentration at steady state) [1, 10]: 1900 ng/mL
OR of combination of inhaled polymyxin B for clinical efficacy (CRO nosocomial pneumonia [2]; 51 patients with AUCss,24 h/MIC < 66.9, 95% CI 0.06-0.79, p = 0.022): 0.21
OR of combination of inhaled polymyxin B for clinical efficacy (CRO nosocomial pneumonia [2]; 54 patients with AUCss,24 h/MIC ≥ 66.9, 95% CI 0.09-2.46, p = 0.365): 0.46
AOR of dose normalized-AUCss,24 h/MIC for efficacy (CRO nosocomial pneumonia [2]; Covariate-Adjusted Residuals method, 95% CI 0.38-1.01, p = 0.056): 0.62
clinical success rate (CRO nosocomial pneumonia [2]; IV + IH group, AUCss,24 h/MIC ≥ 66.9 (54 patients)): 90.0%
clinical success rate (CRO nosocomial pneumonia [2]; IV group, AUCss,24 h/MIC < 66.9 (51 patients)): 35.1%
clinical success rate (CRO nosocomial pneumonia [2]; IV group, AUCss,24 h/MIC ≥ 66.9 (54 patients)): 82.3%
favorable clinical outcomes in pneumonia patients with AUCss,24 h > 66.9 (CRO nosocomial pneumonia [2]; MIC mostly 1 mg/L): 85.2%
optimal cutoff point value of AUCss,24 h/MIC for clinical efficacy (CRO nosocomial pneumonia [2]; ROC curve, largest Youden index, patients receiving combination therapy): 66.9
clinical success rate (CRO nosocomial pneumonia [2]; all 105 patients (70/105), assessed at end of treatment, combination therapy with another antimicrobial): 66.7%
clinical success rate (CRO nosocomial pneumonia [2]; intravenous plus inhaled (IV + IH) group, AUCss,24 h/MIC < 66.9 (51 patients)): 71.4%
Adjusted OR (95% CI) of AUCss,24 h/MIC for clinical efficacy (CRO nosocomial pneumonia [2]; multivariate logistic regression, p = 0.009): 0.97 (0.95–0.99)
Adjusted OR (95% CI) of daily dose (mg) for clinical efficacy (CRO nosocomial pneumonia [2]; multivariate logistic regression, p = 0.028, listed as PMB): 0.98 (0.97–0.99)
Adjusted OR (95% CI) of combination of inhaled polymyxin B for clinical efficacy (CRO nosocomial pneumonia [2]; multivariate logistic regression, p = 0.039, aerosol 25 or 50 mg twice daily, listed as PMB): 0.32 (0.11–0.94)
HR (95% CI) of PMB treatment duration (day) for 30-day mortality (CRO nosocomial pneumonia [3]): 0.67 (0.53-0.85)
patients who cannot achieve AUCss,24 h values within the target therapeutic window [4]: ~30%
